Patent US12491182B2, “Polymorphs of triazole antifungal compound PC945” (Pulmocide Limited, priority 2019, dated 2025)
Converted amounts (≈) assume the structure as drawn. Read-outs that look alike come from different tables or passages of the source. Marks after values point to notes of the source that are not given here.

How the values were obtained:
[1] = Solubility of Compound I in MEK/water mixtures; format: physicochemical; conditions: 25 °C, organic solvent or mixture, thermodynamic from solid
Protocol: (Table 12). It was observed that Form 2 integrity was maintained for at least 24 hours at the lower temperature until the water content exceeded 6%, despite an increase in solubility of Compound I from 19 to 30 mg/ml (data not shown).

Aspergillus fumigatus [2] = conditions: intranasal dosing, immunocompromised mice, repeat dosing; cited from earlier work
[3] = Solubility of Compound I in water; format: physicochemical
Candida auris isolates = conditions: isolates collected globally; cited from earlier work
[4] = target: T1, Aspergillus fumigatus sterol 14α-demethylase CYP51B (Aspergillus fumigatus, UniProt E9QY26); conditions: cited from earlier work
T1 sequence (E9QY26 1-524): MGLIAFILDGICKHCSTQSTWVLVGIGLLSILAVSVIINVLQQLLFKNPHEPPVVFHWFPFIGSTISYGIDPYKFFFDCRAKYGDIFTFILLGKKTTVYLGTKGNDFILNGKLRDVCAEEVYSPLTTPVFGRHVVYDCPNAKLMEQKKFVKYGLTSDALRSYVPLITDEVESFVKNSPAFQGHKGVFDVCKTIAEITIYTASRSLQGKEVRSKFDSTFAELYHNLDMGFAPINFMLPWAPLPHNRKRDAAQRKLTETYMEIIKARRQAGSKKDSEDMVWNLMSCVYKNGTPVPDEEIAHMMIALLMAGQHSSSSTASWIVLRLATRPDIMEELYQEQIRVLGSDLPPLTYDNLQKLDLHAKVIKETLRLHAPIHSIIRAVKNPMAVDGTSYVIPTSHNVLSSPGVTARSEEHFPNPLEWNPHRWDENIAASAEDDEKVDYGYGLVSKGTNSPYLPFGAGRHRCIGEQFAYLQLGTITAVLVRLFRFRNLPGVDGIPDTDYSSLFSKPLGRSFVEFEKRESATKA

[5] = target: T2, Aspergillus fumigatus sterol 14α-demethylase CYP51A (Aspergillus fumigatus, UniProt Q4WNT5); conditions: cited from earlier work
T2 sequence (Q4WNT5 1-515): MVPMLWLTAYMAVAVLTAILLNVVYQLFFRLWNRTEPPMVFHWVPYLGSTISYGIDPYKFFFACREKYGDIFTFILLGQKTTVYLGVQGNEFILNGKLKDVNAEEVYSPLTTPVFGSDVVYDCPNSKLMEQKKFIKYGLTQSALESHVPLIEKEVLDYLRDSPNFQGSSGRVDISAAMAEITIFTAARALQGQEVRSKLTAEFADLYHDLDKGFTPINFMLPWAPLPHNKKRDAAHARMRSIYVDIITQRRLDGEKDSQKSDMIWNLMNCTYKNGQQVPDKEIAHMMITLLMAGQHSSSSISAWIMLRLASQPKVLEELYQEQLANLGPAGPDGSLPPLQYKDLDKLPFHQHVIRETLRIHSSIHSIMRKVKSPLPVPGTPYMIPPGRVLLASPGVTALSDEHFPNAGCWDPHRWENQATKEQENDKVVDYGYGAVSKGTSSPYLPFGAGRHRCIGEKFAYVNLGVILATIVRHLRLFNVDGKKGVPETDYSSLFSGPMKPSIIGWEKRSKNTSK

Aspergillus fumigatus [6] = conditions: topical Compound I in combination with a known systemic triazole agent; lungs of neutropenic, immunocompromised mice; cited from earlier work
Aspergillus fumigatus [7] = conditions: topical Compound I in combination with a known systemic triazole agent; in vitro human alveolus bilayer model; cited from earlier work
[8] = Maturation of 1:1 suspensions of Forms 1 and 2 at varying temperatures, XRPD analysis; format: physicochemical
From the text: It has been determined that the crystalline states, referred to herein as Form 1 and Form 2, constitute an enantiotropic polymorphic pair. This property arises from a temperature dependency of their relative thermodynamic stabilities, whereby one of the polymorphs is the most thermodynamically stable manifestation of the material up to a characteristic (empirically determined) temperature; above which their order of stability is inverted. In the present instance suspensions comprising equal amounts of the two polymorphs were matured, in one of six different solvents, at 50° C., 70° C. and 135° C. (Table 6). In all experiments conducted at both 50° C. and 70° C. the 1:1 mixtures converted into suspensions containing only the Form 2 polymorph. In contrast, all of the mixtures maintained at a temperature of 135° C. were transformed into Form 1.
(§1) X-Ray powder diffraction patterns were collected on a PANalytical diffractometer using Cu Kα radiation (45 kV, 40 mA), θ-θ goniometer, focusing mirror, divergence slit (½″), soller slits at both incident and divergent beam (4 mm) and a PIXcel detector. The software used for data collection was X′Pert Data Collector, version 2.2f and the data was presented using X′Pert Data Viewer, version 1.2d. XRPD patterns were acquired under ambient conditions via a transmission foil sample stage (polyimide—Kapton, 12.7 μm thickness film) under ambient conditions using a PANalytical X′Pert PRO. The data collection range was 2.994-35°2θ with a continuous scan speed of 0.202 s^−1.
A mixture of equal amounts Forms 1 and 2 (100 mg) was charged to crystallisation tubes followed by the selected solvent. The suspensions were heated to the temperatures indicated (Table 6) for 72 hr, during which time samples were taken at 24 hr intervals Solids were isolated at the maturation temperature by filtration and then dried in vacuo at 45° C. for 20 hr. In two cases (Table 6, Entries 1 and 2) suspensions were retained at 135° C. which comprised Form I from the 24 hr time point to the conclusion of the experiment. In the remaining cases (Table 6, Entries 4-6) solutions had formed at 72 hr and solids were recovered by slight cooling, all of which were determined to be Form 1. Those maturated at lower temperatures all gave Form 2 within 24 hr.

[9] = Cross-seeding experiments of Forms 1 and 2 at 5, 25 and 50 °C, XRPD; format: physicochemical; conditions: 96 hr
From the text: as §1
A mixture of Forms 1 and 2 (50% w/w) was prepared and a sample of the mixture (20 mg) was then suspended in a solvent system (50 vol, 1.0 mL) and shaken at different temperatures for 96 hr. The solids were filtered, air dried and analysed by XRPD. The results obtained (Table 8) reveal that, in all but one of the systems investigated (Entries 10-12), the mixture of polymorphic forms had turned over into Form 2 when maintained at both RT and 50° C. The transformation in propyl acetate was seen to be especially facile as Form 2 was also isolated from the suspension which had been maintained at 5° C. (Entry 1).

[10] = Equilibration of Forms 1 and 2, singularly and as mixtures, in MEK and THF alone and with 5% water; format: physicochemical; conditions: 5-10 °C, both equilibration temperatures
From the text: The influence of the initial polymorphic composition on the fate of samples was investigated by equilibration of the either the single polymorphs or an equal mixture of both in anhydrous MEK and THF as well as in the same solvents doped with 5% water.
The results obtained (Table 13) reveal that in anhydrous media the two polymorphs retain their structural integrity, if present singularly (Table 13, Entries 1, 2, 4 and 5). […] (Table 13, Entry 4) which may be attributable to the presence of traces of moisture in a highly hygroscopic solvent.
The results observed when 5% water was admixed to the two solvents indicate that the predominance of the two forms reversed under these conditions, taking kinetic factors into account. In aqueous MEK (5% water) the single polymorphs were again unchanged for the duration of the experiment (Table 13, Entries 7 and 8). In contrast, the binary polymorphic mixture converted into Form 1 in this medium (Table 13, Entry 9). In aqueous THF (5% water) the dominance of Form 1 as the most preferred polymorph was especially evident. In this environment the suspension of Form 1 remained unchanged (Table 13, Entry 10), consistent with the outcome observed for aq MEK under the same conditions.
However, in THF doped with 5% water, both the suspension comprising the binary mixture, as well as that composed of the Form 2 polymorph alone, were transformed into suspensions containing only Form 1 (Table 13, Entries 11 and 12).

## Cc1cc(N2CCN(c3ccc(C(=O)Nc4ccc(F)cc4)cc3)CC2)ccc1OC[C@@H]1CO[C@@](Cn2cncn2)(c2ccc(F)cc2F)C1 [Compound I, 4-(4-(4-(((3R,5R)-5-((1H-1,2,4-triazol-1-yl)methyl)-5-(2,4-difluorophenyl)tetrahydrofuran-3-yl)methoxy)-3-methylphenyl)piperazin-1-yl)-N-(4-fluorophenyl)benzamide]
[1]; MEK with 8% water by volume
  solubility: 23 mg/mL (≈ 33.7 mM)
[1]; MEK with water content rising up to 6% by volume, 25 °C (data not shown)
  solubility: 19 to 30 mg/mL (≈ 27.8 to 43.9 mM)
Aspergillus fumigatus [2]
  anti-fungal effects by biomarker analysis: accumulated upon repeat dosing and were persistent
[3]
  solubility in water: extremely low solubility
Candida auris isolates
  inhibition of Candida auris isolates, potency compared with azoles: more potent inhibitor than posaconazole, voriconazole and fluconazole
[4]
  inhibition of sterol 14α-demethylase CYP51B: potent inhibitor
[5]
  inhibition of sterol 14α-demethylase CYP51A: potent inhibitor
Aspergillus fumigatus [6]
  anti-fungal effect of combination: synergistic anti-fungal effects
Aspergillus fumigatus [7]
  anti-fungal effect of combination: synergistic anti-fungal effects

## Cc1cc(N2CCN(c3ccc(C(=O)Nc4ccc(F)cc4)cc3)CC2)ccc1OC[C@@H]1CO[C@@](Cn2cncn2)(c2ccc(F)cc2F)C1 [Forms 1 and 2]
[8]; decalin, 50 °C, XRPD after 72 hr
  Polymorph obtained at temp indicated: 2
[8]; decalin, 70 °C, XRPD after 72 hr
  Polymorph obtained at temp indicated: 2
[8]; decalin, 135 °C, 72 hr, dissolution occurred, solid obtained on slight cooling
  Polymorph obtained at temp indicated: 1^b
[8]; diphenyl ether, 50 °C, XRPD after 72 hr
  Polymorph obtained at temp indicated: 2
[8]; diphenyl ether, 70 °C, XRPD after 72 hr
  Polymorph obtained at temp indicated: 2
[8]; diphenyl ether, 135 °C, 72 hr, dissolution occurred, solid obtained on slight cooling
  Polymorph obtained at temp indicated: 1^b
[8]; from maturation of 1:1 mixtures at 50, 70 and 135 °C
  enantiotropic transition point (temperature at which stability inverts): 70-135 °C
[8]; heptanol, 50 °C, XRPD after 72 hr
  Polymorph obtained at temp indicated: 2
[8]; heptanol, 70 °C, XRPD after 72 hr
  Polymorph obtained at temp indicated: 2
[8]; heptanol, 135 °C, 72 hr, dissolution occurred, solid obtained on slight cooling
  Polymorph obtained at temp indicated: 1^b
[8]; mesitylene, 50 °C, XRPD after 72 hr
  Polymorph obtained at temp indicated: 2
[8]; mesitylene, 70 °C, XRPD after 72 hr
  Polymorph obtained at temp indicated: 2
[8]; mesitylene, 135 °C, XRPD after 72 hr
  Polymorph obtained at temp indicated: 1
[8]; p-cymene, 50 °C, XRPD after 72 hr
  Polymorph obtained at temp indicated: 2
[8]; p-cymene, 70 °C, XRPD after 72 hr
  Polymorph obtained at temp indicated: 2
[8]; p-cymene, 135 °C, 72 hr, dissolution occurred, solid obtained on slight cooling
  Polymorph obtained at temp indicated: 1^b
[8]; xylenes, 50 °C, XRPD after 72 hr
  Polymorph obtained at temp indicated: 2
[8]; xylenes, 70 °C, XRPD after 72 hr
  Polymorph obtained at temp indicated: 2
[8]; xylenes, 135 °C, XRPD after 72 hr
  Polymorph obtained at temp indicated: 1
[9]; PrOAc, 5 °C
  Polymorphic Form by XRPD: 2
[9]; PrOAc, 25 °C
  Polymorphic Form by XRPD: 2
[9]; PrOAc, 50 °C
  Polymorphic Form by XRPD: 2
[9]; TBME, 25 °C
  Polymorphic Form by XRPD: 2
[9]; TBME, 50 °C
  Polymorphic Form by XRPD: 2
[9]; Toluene, 25 °C
  Polymorphic Form by XRPD: 2
[9]; Toluene, 50 °C
  Polymorphic Form by XRPD: 2
[10]; MEK (anhydrous), listed as 1 + 2
  Form by XRPD Post Equilibration: 2
[10]; MEK/5% Water
  Form by XRPD Post Equilibration: 1
[10]; THF (anhydrous), Form 1 input: some evidence of Form 2 at 10 °C, listed as 1 + 2
  Form by XRPD Post Equilibration: 2
[10]; THF/5% Water
  Form by XRPD Post Equilibration: 1

## [2H]c1c([2H])c(NC(=O)c2ccc(N3CCN(c4ccc(OC[C@@H]5CO[C@@](Cn6cncn6)(c6ccc(F)cc6F)C5)c(C)c4)CC3)cc2)c([2H])c([2H])c1F [Compound 2, 4-(4-(4-(((3R,5R)-5-((1H-1,2,4-triazol-1-yl)methyl)-5-(2,4-difluorophenyl)tetrahydrofuran-3-yl)methoxy)-3-methylphenyl)piperazin-1-yl)-N-(4-fluorophenyl-2,3,5,6-d4)benzamide, reference compound]
[10]; MEK (anhydrous)
  Form by XRPD Post Equilibration: 2
[10]; MEK/5% Water
  Form by XRPD Post Equilibration: 2
[10]; THF (anhydrous), Form 1 input: some evidence of Form 2 at 10 °C
  Form by XRPD Post Equilibration: 2
[10]; THF/5% Water
  Form by XRPD Post Equilibration: 1
